biological target: T1, human TLR7 (Homo sapiens, UniProt Q9NYK1); assay: TLR7 inhibition reporter assay (HEK-Blue SEAP); type: cell-based; details: HEK-Blue cells overexpressing human TLR7, gardiquimod 7.5 μM, 22 hour incubation
T1 construct: host or cells: HEK-Blue cells
T1 sequence (Q9NYK1 27-1049): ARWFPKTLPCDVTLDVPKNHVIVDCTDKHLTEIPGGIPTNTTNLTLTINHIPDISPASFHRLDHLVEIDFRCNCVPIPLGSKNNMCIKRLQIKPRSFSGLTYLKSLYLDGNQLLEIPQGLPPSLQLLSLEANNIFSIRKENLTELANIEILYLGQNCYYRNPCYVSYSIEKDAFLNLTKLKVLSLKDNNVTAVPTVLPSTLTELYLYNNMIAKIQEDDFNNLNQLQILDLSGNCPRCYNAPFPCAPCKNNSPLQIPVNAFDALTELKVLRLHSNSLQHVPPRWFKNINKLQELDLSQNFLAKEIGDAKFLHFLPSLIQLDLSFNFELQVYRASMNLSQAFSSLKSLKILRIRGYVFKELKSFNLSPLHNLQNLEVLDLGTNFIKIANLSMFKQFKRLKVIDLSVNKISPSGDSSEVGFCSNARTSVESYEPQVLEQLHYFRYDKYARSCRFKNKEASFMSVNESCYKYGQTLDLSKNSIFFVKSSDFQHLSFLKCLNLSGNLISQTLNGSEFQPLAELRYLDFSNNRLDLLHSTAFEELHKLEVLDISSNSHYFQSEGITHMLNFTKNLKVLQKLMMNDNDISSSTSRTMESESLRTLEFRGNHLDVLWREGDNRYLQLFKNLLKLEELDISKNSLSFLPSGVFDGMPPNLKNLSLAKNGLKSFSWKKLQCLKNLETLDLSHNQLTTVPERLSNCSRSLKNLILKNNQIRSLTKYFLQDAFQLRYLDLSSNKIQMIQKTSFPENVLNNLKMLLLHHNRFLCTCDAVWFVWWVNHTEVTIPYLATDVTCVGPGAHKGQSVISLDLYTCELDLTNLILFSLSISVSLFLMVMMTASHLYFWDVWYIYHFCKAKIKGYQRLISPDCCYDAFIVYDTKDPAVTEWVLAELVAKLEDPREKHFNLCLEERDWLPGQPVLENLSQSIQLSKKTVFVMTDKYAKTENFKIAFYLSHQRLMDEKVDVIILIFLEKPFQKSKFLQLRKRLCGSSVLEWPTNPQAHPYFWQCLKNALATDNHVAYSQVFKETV
Procedure: TLR7/8/9 Inhibition Reporter Assays
Briefly, cells are seeded into Greiner 384 well plates (15000 cells per well for TLR7, 20,000 for TLR8 and 25,000 for TLR9) and then treated with test compounds in DMSO to yield a final dose response concentration range of 0.05 nM-50 μM. […] After a 22 hour incubation at 37° C., 5% CO2, SEAP levels are determined with the addition of HEK-Blue™ Detection reagent (Invivogen), a cell culture medium that allows for detection of SEAP, according to manufacturer's specifications. The percent inhibition is determined as the % reduction in the HEK-Blue signal present in wells treated with agonist plus DMSO alone compared to wells treated with a known inhibitor.

SMILES | IC50
CCN1CCC[C@@H](n2c(=O)[nH]c3cc(-c4cc(OC)c5ncnn5c4)c(C(F)(F)F)cc32)C1 [Example 110, (R)-1-(1-ethylpiperidin-3-yl)-5-(8-methoxy-[1,2,4]triazolo[1,5-a]pyridin-6-yl)-6-(trifluoromethyl)-1,3-dihydro-2H-benzo[d]imidazol-2-one] | 16.8 nM
COc1cc(-c2cc3[nH]c(=O)n([C@@H]4CCCN(C(C)C)C4)c3cc2C(F)(F)F)cn2ncnc12 [Example 111, (R)-1-(1-isopropylpiperidin-3-yl)-5-(8-methoxy-[1,2,4]triazolo[1,5-a]pyridin-6-yl)-6-(trifluoromethyl)-1,3-dihydro-2H-benzo[d]imidazol-2-one] | 23.6 nM
COc1cc(-c2cc3[nH]c(=O)n([C@@H]4CCCN(C5COC5)C4)c3cc2C(F)(F)F)cn2ncnc12 [Example 113, (R)-5-(8-methoxy-[1,2,4]triazolo[1,5-a]pyridin-6-yl)-1-(1-(oxetan-3-yl)piperidin-3-yl)-6-(trifluoromethyl)-1,3-dihydro-2H-benzo[d]imidazol-2-one] | 488 nM
CCCN1CCC[C@@H](n2c(=O)[nH]c3cc(-c4cc(OC)c5ncnn5c4)c(C(F)(F)F)cc32)C1 [Example 115, (R)-5-(8-methoxy-[1,2,4]triazolo[1,5-a]pyridin-6-yl)-1-(1-propylpiperidin-3-yl)-6-(trifluoromethyl)-1,3-dihydro-2H-benzo[d]imidazol-2-one] | 34.1 nM
COc1cc(-c2cc3[nH]c(=O)n([C@@H]4CCCN(CC(C)(C)C)C4)c3cc2C(F)(F)F)cn2ncnc12 [Example 116, (R)-5-(8-methoxy-[1,2,4]triazolo[1,5-a]pyridin-6-yl)-1-(1-neopentylpiperidin-3-yl)-6-(trifluoromethyl)-1,3-dihydro-2H-benzo[d]imidazol-2-one] | 44.1 nM
CCC(CC)CN1CCC[C@@H](n2c(=O)[nH]c3cc(-c4cc(OC)c5ncnn5c4)c(C(F)(F)F)cc32)C1 [Example 117, (R)-1-(1-(2-ethylbutyl)piperidin-3-yl)-5-(8-methoxy-[1,2,4]triazolo[1,5-a]pyridin-6-yl)-6-(trifluoromethyl)-1,3-dihydro-2H-benzo[d]imidazol-2-one] | 64.4 nM
COc1cc(-c2cc3[nH]c(=O)n([C@H]4CCCN(C)C4)c3cc2C(C)C)cn2ncnc12 [Example 119, (S)-6-isopropyl-5-(8-methoxy-[1,2,4]triazolo[1,5-a]pyridin-6-yl)-1-(1-methylpiperidin-3-yl)-1,3-dihydro-2H-benzo[d]imidazol-2-one] | 31.8 nM
COc1cc(-c2cc3[nH]c(=O)n([C@H]4CCCN(C(C)C)C4)c3cc2C(C)C)cn2ncnc12 [Example 120, (S)-6-isopropyl-1-(1-isopropylpiperidin-3-yl)-5-(8-methoxy-[1,2,4]triazolo[1,5-a]pyridin-6-yl)-1,3-dihydro-2H-benzo[d]imidazol-2-one] | 0.64 nM
CCCN1CCC[C@H](n2c(=O)[nH]c3cc(-c4cc(OC)c5ncnn5c4)c(C(C)C)cc32)C1 [Example 121, (S)-6-isopropyl-5-(8-methoxy-[1,2,4]triazolo[1,5-a]pyridin-6-yl)-1-(1-propylpiperidin-3-yl)-1,3-dihydro-2H-benzo[d]imidazol-2-one] | 28.6 nM
COc1cc(-c2cc3[nH]c(=O)n([C@H]4CCCN(C5CCC5)C4)c3cc2C(C)C)cn2ncnc12 [Example 122, (S)-1-(1-cyclobutylpiperidin-3-yl)-6-isopropyl-5-(8-methoxy-[1,2,4]triazolo[1,5-a]pyridin-6-yl)-1,3-dihydro-2H-benzo[d]imidazol-2-one] | 15.1 nM
COc1cc(-c2cc3[nH]c(=O)n([C@H]4CCCN(C5COC5)C4)c3cc2C(C)C)cn2ncnc12 [Example 123, (S)-6-isopropyl-5-(8-methoxy-[1,2,4]triazolo[1,5-a]pyridin-6-yl)-1-(1-(oxetan-3-yl)piperidin-3-yl)-1,3-dihydro-2H-benzo[d]imidazol-2-one] | 125 nM
COc1cc(-c2cc3[nH]c(=O)n([C@H]4CCCN(C5CCOCC5)C4)c3cc2C(C)C)cn2ncnc12 [Example 124, (S)-6-isopropyl-5-(8-methoxy-[1,2,4]triazolo[1,5-a]pyridin-6-yl)-1-(1-(tetrahydro-2H-pyran-4-yl)piperidin-3-yl)-1,3-dihydro-2H-benzo[d]imidazol-2-one] | 63.8 nM
COc1cc(-c2cc3[nH]c(=O)n([C@H]4CCCN(CC5CCOCC5)C4)c3cc2C(C)C)cn2ncnc12 [Example 125, (S)-6-isopropyl-5-(8-methoxy-[1,2,4]triazolo[1,5-a]pyridin-6-yl)-1-(1-((tetrahydro-2H-pyran-4-yl)methyl)piperidin-3-yl)-1,3-dihydro-2H-benzo[d]imidazol-2-one] | 34.1 nM
COc1cc(-c2cc3[nH]c(=O)n([C@H]4CCCN(CC(C)C)C4)c3cc2C(C)C)cn2ncnc12 [Example 129, (S)-1-(1-isobutylpiperidin-3-yl)-6-isopropyl-5-(8-methoxy-[1,2,4]triazolo[1,5-a]pyridin-6-yl)-1,3-dihydro-2H-benzo[d]imidazol-2-one] | 12.8 nM
COc1cc(-c2cc3[nH]c(=O)n([C@H]4CCCN(CCC(C)C)C4)c3cc2C(C)C)cn2ncnc12 [Example 132, (S)-1-(1-isopentylpiperidin-3-yl)-6-isopropyl-5-(8-methoxy-[1,2,4]triazolo[1,5-a]pyridin-6-yl)-1,3-dihydro-2H-benzo[d]imidazol-2-one] | 18.3 nM

The remaining lines, values ahead:

IC50 | SMILES
30.8 nM | COc1cc(-c2cc3[nH]c(=O)n([C@@H]4CCCN(CC5CCOCC5)C4)c3cc2C(F)(F)F)cn2ncnc12 [Example 112, (R)-5-(8-methoxy-[1,2,4]triazolo[1,5-a]pyridin-6-yl)-1-(1-((tetrahydro-2H-pyran-4-yl)methyl)piperidin-3-yl)-6-(trifluoromethyl)-1,3-dihydro-2H-benzo[d]imidazol-2-one]
2.87 nM | COc1cc(-c2cc3[nH]c(=O)n([C@@H]4CCCN(C)C4)c3cc2C(F)(F)F)cn2ncnc12 [Example 114, (R)-5-(8-methoxy-[1,2,4]triazolo[1,5-a]pyridin-6-yl)-1-(1-methylpiperidin-3-yl)-6-(trifluoromethyl)-1,3-dihydro-2H-benzo[d]imidazol-2-one]
26.5 nM | COCCN1CCC[C@@H](n2c(=O)[nH]c3cc(-c4cc(OC)c5ncnn5c4)c(C(F)(F)F)cc32)C1 [Example 118, (R)-5-(8-methoxy-[1,2,4]triazolo[1,5-a]pyridin-6-yl)-1-(1-(2-methoxyethyl)piperidin-3-yl)-6-(trifluoromethyl)-1,3-dihydro-2H-benzo[d]imidazol-2-one]
81.8 nM | COc1cc(-c2cc3[nH]c(=O)n([C@H]4CCCN(CC5CCOC5)C4)c3cc2C(C)C)cn2ncnc12 (stereo partly drawn) [Example 126, 6-isopropyl-5-(8-methoxy-[1,2,4]triazolo[1,5-a]pyridin-6-yl)-1-((3S)-1-((tetrahydrofuran-3-yl)methyl)piperidin-3-yl)-1,3-dihydro-2H-benzo[d]imidazol-2-one]
14.3 nM | COc1cc(-c2cc3[nH]c(=O)n([C@H]4CCCN(CC5CC5)C4)c3cc2C(C)C)cn2ncnc12 [Example 127, (S)-1-(1-(cyclopropylmethyl)piperidin-3-yl)-6-isopropyl-5-(8-methoxy-[1,2,4]triazolo[1,5-a]pyridin-6-yl)-1,3-dihydro-2H-benzo[d]imidazol-2-one]
31.1 nM | CCC(CC)CN1CCC[C@H](n2c(=O)[nH]c3cc(-c4cc(OC)c5ncnn5c4)c(C(C)C)cc32)C1 [Example 130, (S)-1-(1-(2-ethylbutyl)piperidin-3-yl)-6-isopropyl-5-(8-methoxy-[1,2,4]triazolo[1,5-a]pyridin-6-yl)-1,3-dihydro-2H-benzo[d]imidazol-2-one]
17.3 nM | COc1cc(-c2cc3[nH]c(=O)n([C@H]4CCCN(CC5CCC5)C4)c3cc2C(C)C)cn2ncnc12 [Example 133, (S)-1-(1-(cyclobutylmethyl)piperidin-3-yl)-6-isopropyl-5-(8-methoxy-[1,2,4]triazolo[1,5-a]pyridin-6-yl)-1,3-dihydro-2H-benzo[d]imidazol-2-one]
